Reference: patent US20120010075A1 (priority 2009, published 2012)

Test system: not given
Experiment: not given
Conditions: not given

Compared with C/C(=N\NC(=O)c1cccc(C)c1)c1cccc([N+](=O)[O-])c1O [Example 270], C/C(=N\NC(=O)c1cccc(Cl)c1)c1cccc([N+](=O)[O-])c1O [Example 273] is higher in melting point: 235 to 239 °C for the first, 251 to 286 °C for the second.

C/C(=N\NC(=O)c1ccc(C)cc1)c1cccc([N+](=O)[O-])c1O [Example 271] and C/C(=N\NC(=O)c1ccc(Cl)cc1)c1cccc([N+](=O)[O-])c1O [Example 274] cannot be ordered by melting point: 242 to 249 °C for the first, 241 to 251 °C for the second.

Compared with C/C(=N\NC(=O)c1ccccc1Cl)c1cccc([N+](=O)[O-])c1O [Example 272], COc1ccc(/C(C)=N/NC(=O)c2ccccc2Cl)c(O)c1 [Example 284] is lower in melting point: 196 to 205 °C for the first, 174 to 175 °C for the second.

First: O=C(N/N=C/c1c(O)cc(C(F)(F)F)cc1C(F)(F)F)c1ccccc1 [Example 276]
Second: C/C(=N\NC(=O)c1ccccc1)c1cc(Br)ccc1O [Example 287]
The melting point of the first is lower: 144 to 193 °C for the first, 204 to 208 °C for the second.

First: COc1ccc(/C(C)=N/NC(=O)c2ccccc2)c(O)c1 [Example 280]
Second: COc1ccc(/C(C)=N/NC(=O)c2ccccc2C)c(O)c1 [Example 281]
The melting point of the first is higher: 211 to 213 °C for the first, 170 to 172 °C for the second.

First: COc1ccc(/C(C)=N/NC(=O)c2cccc(C)c2)c(O)c1 [Example 282]
Second: COc1ccc(/C(C)=N/NC(=O)c2cccc(Cl)c2)c(O)c1 [Example 285]
The melting point of the first is lower: 184 to 185 °C for the first, 212 to 214 °C for the second.

First: COc1ccc(/C(C)=N/NC(=O)c2ccc(C)cc2)c(O)c1 [Example 283]
Second: COc1ccc(/C(C)=N/NC(=O)c2ccc(Cl)cc2)c(O)c1 [Example 286]
The melting point of the first is lower: 206 to 207 °C for the first, 227 to 229 °C for the second.

Compared with C/C(=N\NC(=O)c1ccccc1C)c1cc(Br)ccc1O [Example 288], C/C(=N\NC(=O)c1cccc(C)c1)c1cc(Br)ccc1O [Example 289] is higher in melting point: 201 to 203 °C for the first, 227 to 233 °C for the second.

With C/C(=N\NC(=O)c1ccc(C)cc1)c1cc(Br)ccc1O [Example 290] the melting point was 245 to 248 °C.

Test system: Leptosphaeria nodorum (LEPTNO)
Experiment: In vitro fungitoxicity of hydrazones with and without copper towards Leptosphaeria nodorum (Example 26)
Format: cell-based
Conditions: Parastagonospora nodorum, 72 h, compound 0.05 μg/mL, copper-minus medium, 72 h at 25° C.; read-out: LEPTNO % Inhn. Minus Copper Observed

Going from C/C(=N\NC(=O)c1cccc(C)c1)c1cccc([N+](=O)[O-])c1O [Example 270] to C/C(=N\NC(=O)c1cccc(Cl)c1)c1cccc([N+](=O)[O-])c1O [Example 273], the inhibition of growth at 0.05 µg/mL falls from 6.9% to 0.4%.

Compared with C/C(=N\NC(=O)c1ccc(C)cc1)c1cccc([N+](=O)[O-])c1O [Example 271], C/C(=N\NC(=O)c1ccc(Cl)cc1)c1cccc([N+](=O)[O-])c1O [Example 274] is lower in inhibition of growth at 0.05 µg/mL: 6.9% for the first, 0% for the second.

Compared with C/C(=N\NC(=O)c1ccccc1Cl)c1cccc([N+](=O)[O-])c1O [Example 272], COc1ccc(/C(C)=N/NC(=O)c2ccccc2Cl)c(O)c1 [Example 284] is lower in inhibition of growth at 0.05 µg/mL: 2% for the first, 0% for the second.

First: O=C(N/N=C/c1c(O)cc(C(F)(F)F)cc1C(F)(F)F)c1ccccc1 [Example 276]
Second: C/C(=N\NC(=O)c1ccccc1)c1cc(Br)ccc1O [Example 287]
The inhibition of growth at 0.05 µg/mL of the first is higher: 5.5% for the first, 0% for the second.

Going from COc1ccc(/C(C)=N/NC(=O)c2ccccc2)c(O)c1 [Example 280] to COc1ccc(/C(C)=N/NC(=O)c2ccccc2C)c(O)c1 [Example 281], the inhibition of growth at 0.05 µg/mL falls from 2.2% to 1.4%.

First: COc1ccc(/C(C)=N/NC(=O)c2cccc(C)c2)c(O)c1 [Example 282]
Second: COc1ccc(/C(C)=N/NC(=O)c2cccc(Cl)c2)c(O)c1 [Example 285]
The inhibition of growth at 0.05 µg/mL of the first is lower: 0% for the first, 3.4% for the second.

First: COc1ccc(/C(C)=N/NC(=O)c2ccc(C)cc2)c(O)c1 [Example 283]
Second: COc1ccc(/C(C)=N/NC(=O)c2ccc(Cl)cc2)c(O)c1 [Example 286]
The inhibition of growth at 0.05 µg/mL of the first is lower: 0% for the first, 2.3% for the second.

First: C/C(=N\NC(=O)c1ccccc1C)c1cc(Br)ccc1O [Example 288]
Second: C/C(=N\NC(=O)c1cccc(C)c1)c1cc(Br)ccc1O [Example 289]
The inhibition of growth at 0.05 µg/mL of the first is higher: 1.8% for the first, 0% for the second.

Molecule C/C(=N\NC(=O)c1ccc(C)cc1)c1cc(Br)ccc1O [Example 290] has an inhibition of growth at 0.05 µg/mL of 0.4%.

Same assay, conditions: compound 0.05 μg/mL, copper-plus medium (CuCl2.2H2O), 72 h at 25° C.

Compared with C/C(=N\NC(=O)c1cccc(C)c1)c1cccc([N+](=O)[O-])c1O [Example 270], C/C(=N\NC(=O)c1cccc(Cl)c1)c1cccc([N+](=O)[O-])c1O [Example 273] is lower in “LEPTNO % Inhn. Plus Copper Observed” value: 98.6% for the first, 97.7% for the second.

Compared with C/C(=N\NC(=O)c1ccc(C)cc1)c1cccc([N+](=O)[O-])c1O [Example 271], C/C(=N\NC(=O)c1ccc(Cl)cc1)c1cccc([N+](=O)[O-])c1O [Example 274] is lower in “LEPTNO % Inhn. Plus Copper Observed” value: 98.9% for the first, 96.3% for the second.

Going from C/C(=N\NC(=O)c1ccccc1Cl)c1cccc([N+](=O)[O-])c1O [Example 272] to COc1ccc(/C(C)=N/NC(=O)c2ccccc2Cl)c(O)c1 [Example 284], the “LEPTNO % Inhn. Plus Copper Observed” value falls from 98.1% to 97.1%.

First: O=C(N/N=C/c1c(O)cc(C(F)(F)F)cc1C(F)(F)F)c1ccccc1 [Example 276]
Second: C/C(=N\NC(=O)c1ccccc1)c1cc(Br)ccc1O [Example 287]
The “LEPTNO % Inhn. Plus Copper Observed” value of the first is lower: 97.8% for the first, 98.3% for the second.

Compared with COc1ccc(/C(C)=N/NC(=O)c2ccccc2)c(O)c1 [Example 280], COc1ccc(/C(C)=N/NC(=O)c2ccccc2C)c(O)c1 [Example 281] is higher in “LEPTNO % Inhn. Plus Copper Observed” value: 98.2% for the first, 98.4% for the second.

First: COc1ccc(/C(C)=N/NC(=O)c2cccc(C)c2)c(O)c1 [Example 282]
Second: COc1ccc(/C(C)=N/NC(=O)c2cccc(Cl)c2)c(O)c1 [Example 285]
The “LEPTNO % Inhn. Plus Copper Observed” value of the first is lower: 94.7% for the first, 97.5% for the second.

Compared with COc1ccc(/C(C)=N/NC(=O)c2ccc(C)cc2)c(O)c1 [Example 283], COc1ccc(/C(C)=N/NC(=O)c2ccc(Cl)cc2)c(O)c1 [Example 286] is higher in “LEPTNO % Inhn. Plus Copper Observed” value: 95.9% for the first, 98.4% for the second.

First: C/C(=N\NC(=O)c1ccccc1C)c1cc(Br)ccc1O [Example 288]
Second: C/C(=N\NC(=O)c1cccc(C)c1)c1cc(Br)ccc1O [Example 289]
The “LEPTNO % Inhn. Plus Copper Observed” value of the first is higher: 98.2% for the first, 97.6% for the second.

For C/C(=N\NC(=O)c1ccc(C)cc1)c1cc(Br)ccc1O [Example 290], the “LEPTNO % Inhn. Plus Copper Observed” value was 95.5%.

Test system: Phytophthora infestans
Experiment: not given
Format: in vivo, Phytophthora infestans on tomato
Conditions: hydrazone 50 ppm + 50 μM CuCl2.2H2O, applied 24 h before inoculation, assessed 7 days after inoculation, tomato

Going from C/C(=N\NC(=O)c1cccc(C)c1)c1cccc([N+](=O)[O-])c1O [Example 270] to C/C(=N\NC(=O)c1cccc(Cl)c1)c1cccc([N+](=O)[O-])c1O [Example 273], the “TLB % Control” value falls from 61.0% to 44.0%.

Going from C/C(=N\NC(=O)c1ccc(C)cc1)c1cccc([N+](=O)[O-])c1O [Example 271] to C/C(=N\NC(=O)c1ccc(Cl)cc1)c1cccc([N+](=O)[O-])c1O [Example 274], the “TLB % Control” value rises from 61.0% to 89.0%.

Compared with C/C(=N\NC(=O)c1ccccc1Cl)c1cccc([N+](=O)[O-])c1O [Example 272], COc1ccc(/C(C)=N/NC(=O)c2ccccc2Cl)c(O)c1 [Example 284] is higher in “TLB % Control” value: 37.0% for the first, 74.0% for the second.

Compared with O=C(N/N=C/c1c(O)cc(C(F)(F)F)cc1C(F)(F)F)c1ccccc1 [Example 276], C/C(=N\NC(=O)c1ccccc1)c1cc(Br)ccc1O [Example 287] is lower in “TLB % Control” value: 71.2% for the first, 65.0% for the second.

Compared with COc1ccc(/C(C)=N/NC(=O)c2ccccc2)c(O)c1 [Example 280], COc1ccc(/C(C)=N/NC(=O)c2ccccc2C)c(O)c1 [Example 281] is lower in “TLB % Control” value: 88.0% for the first, 67.0% for the second.

Compared with COc1ccc(/C(C)=N/NC(=O)c2cccc(C)c2)c(O)c1 [Example 282], COc1ccc(/C(C)=N/NC(=O)c2cccc(Cl)c2)c(O)c1 [Example 285] is lower in “TLB % Control” value: 52.0% for the first, 51.0% for the second.

Going from COc1ccc(/C(C)=N/NC(=O)c2ccc(C)cc2)c(O)c1 [Example 283] to COc1ccc(/C(C)=N/NC(=O)c2ccc(Cl)cc2)c(O)c1 [Example 286], the “TLB % Control” value rises from 67.0% to 75.0%.

First: C/C(=N\NC(=O)c1ccccc1C)c1cc(Br)ccc1O [Example 288]
Second: C/C(=N\NC(=O)c1cccc(C)c1)c1cc(Br)ccc1O [Example 289]
The “TLB % Control” value of the first is lower: 26.0% for the first, 45.0% for the second.

With C/C(=N\NC(=O)c1ccc(C)cc1)c1cc(Br)ccc1O [Example 290] the “TLB % Control” value was 21.0%.
